Test results as given in US8481555B2, “Aza-bicyclic amine N-oxide compounds as alpha-7 nicotinic acetylcholine receptor ligand pro-drugs” (Bristol-Myers Squibb Company, priority 2010, dated 2013).
Read-outs that look alike come from different tables or passages of the source.

Legend:
[1] = Conversion of Compound B to Compound A in the dog (IV infusion and oral gavage, crossover); format: in vivo, male beagle dogs; conditions: plasma
[2] = as above; format: in vivo, male beagle dogs; conditions: for AUC(0-t): analyte as labelled, read-out: AUC(0-24 h)
Protocol: (§1) The following section details the liquid chromatography with tandem mass spectrometry (LC/MS/MS)-based bioanalytical methods developed to support the analysis of the in vivo biological samples (brain, plasma, urine) from studies conducted in the dog and rat.
(§2) Sample Preparation: Blood, Plasma, Serum, Urine. Plasma and blood samples were prepared as described below. If dilutions were required, an aliquot of the sample was diluted into the respective matrix. For the analysis of urine samples, an aliquot was first diluted into blank plasma and then treated as described below.
(§3) Sample preparation was conducted manually or on a Packard MultiPROBE automated liquid handler. The internal standard (IS) solution (1000 nM (S,E)-5-bromo-N-(1′-azaspiro[oxazolidine-5,3′-bicyclo[2.2.2]octane]-2-ylidene)pyrazin-2-amine) was prepared in acetonitrile. Two hundred microliters of the IS solution was added to each well of a Strata protein precipitation filter plate (Phenomenex, Torrance, Calif.). Biological samples (60 μL) were added to the filter plate. The filter plate was attached atop a standard 96 well plate and the entire unit was centrifuged at 1100 rpm for 2 minutes. The supernatant was collected in the 96 well plate. Five microliters of each sample was injected onto the LC/MS/MS system for analysis.
(§4) Instrumentation. The UHPLC system used was an Agilent 1200 series (Agilent Technologies, Wilmington, Del.) coupled with CTC Analytics HTS PAL Auto Sampler (Leap Technologies, Carrboro, N.C.) that was equipped with a cooling stack so that samples were maintained at 10° C. during analysis. The analytical column used was a Waters Acquity HSS T3 (2.1×50 mm, 1.8 um particles) at 60° C. The mobile phase, which consisted of 0.1% formic acid in water (A) and 0.1% formic acid in acetonitrile (B), was delivered at a flow rate of 0.6 mL/min.
(§5) The UHPLC was interfaced to an API4000 QTrap LC/MS/MS System® (AppliedBiosystems/MDS Sciex, Foster City, Calif.) equipped with an electrospray ionization interface operating in the positive ionization mode. The source temperature was 500° C. Detection of each analyte was achieved through selected reaction monitoring. Ions representing the precursor (M+H)^+ species for Compound A, Compound B, and the IS were selected in quadrupole 1 and collisionally dissociated with nitrogen to generate specific product ions, which were subsequently monitored by quadrupole 3.
(§6) Standard Curve Ranges. Unless otherwise specified, the analysis of Compound A and Compound B were conducted against a standard curve ranging from 0.6 to 1,250 nM and 4.8 to 5,000 nM, respectively. The standard curve was fitted with a linear regression weighted by the square of the reciprocal concentration (1/x^2). Standards were analyzed in duplicate. Quality control samples were prepared in blank biological matrix at concentration levels within the range of the standard curve. The predicted concentrations of more than 80% of the QCs from various different matrices were within 20% of nominal values, indicating acceptable assay performance.
Conversion of N-oxide, Compound B, to Compound A in the dog. The conversion of Compound B to Compound A was evaluated in a crossover-design study in male beagle dogs. Three animals (5 to 8 kg) received Compound B by IV infusion (1 mg/kg over 5 minutes) via a cephalic vein and by oral gavage (5 mg/kg), with a 1-week washout between treatments. Serial blood samples (˜0.3 mL) were collected from a saphenous vein predose and at (0.083, 0.17 IV only), 0.25, 0.5, 0.75, 1, 2, 4, 6, 8, and 24 hours post dose, followed by centrifugation at 4° C. (1500-2000×g) to obtain plasma. Samples were stored at −20° C. until analysis by LC/MS/MS.
Table VI summarizes the PK parameters of Compound B and the appearance of Compound A following a single dose in dogs. Following either an IV or PO dose, the conversion of Compound B to Compound A was observed; however, it was more extensive after oral dosing. […]

[3] = Conversion of Compound B to Compound A in the rat (intra-duodenal infusion, portal vein sampling); format: in vivo, male Sprague-Dawley rats; conditions: intra-duodenal infusion of Compound B 10 mg/kg, analyte as labelled; for AUC(0-t): 10 mg/kg; for AUC(0-t) / Cmax: fasted, PVC collection, plasma
Protocol: as §1, §2, §3, §4, §5, §6
Conversion of N-oxide, Compound B, to Compound A in the rat. The conversion of Compound B to Compound A was evaluated in male Sprague-Dawley rats (260-280 g) Animals (N=3 per group) received Compound B as an intra-duodenal infusion (10 mg/kg over 10 minutes) via an indwelling intra-duodenal cannula (IDC) with collection via the intra-portal vein. Serial blood samples were obtained predose and at 0.17, 0.25, 0.5, 0.75, 1, 2, 4, 6, 8, and 24 hours post dose. Plasma samples, obtained by centrifugation at 4° C. (1500-2000×g), were stored at −20° C. until analysis.
All conversion studies in rats were performed in animals containing indwelling cannulas in the duodenum and portal vein. The studies were designed to isolate the role of the GI tract in the reduction of Compound B. Table IV summarizes the exposure of Compound B and Compound A in the portal vein following an intra-duodenal infusion of Compound B in the rat. […]

[4] = male, beagle, fasted, oral gavage of Compound B 5 mg/kg, plasma
[5] = male, beagle, fed, IV infusion of Compound B 1 mg/kg, plasma
[6] = male, Sprague-Dawley, in vivo, read-out: AUC(0-4)
[7] = male, Sprague-Dawley, in vivo, read-out: Plasma concentration in the portal vein
[8] = fed, IV infusion of Compound B 1 mg/kg, plasma

SMILES	AUC(0-t) [2, 4] [µM·h]	AUC(0-t) [2, 5] [µM·h]	AUC(0-t) [3, 6] [µM·h]	Cmax ([3]; male, Sprague-Dawley, in vivo) [nM]	concentration at 0.167 h [3, 7] [nM]	concentration at 0.25 h [3, 7] [nM]	concentration at 0.5 h [3, 7] [nM]	concentration at 0.75 h [3, 7] [nM]	concentration at 1 h [3, 7] [nM]	concentration at 2 h [3, 7] [nM]	concentration at 4 h [3, 7] [nM]	further results
c1ccc2cc(NC3=NC[C@@]4(CN5CCC4CC5)O3)ncc2c1 [Compound A, (R)—N-(isoquinolin-3-yl)-4H-1′-azaspiro[oxazole-5,3′-bicyclo[2.2.2]octan]-2-amine]	0.7 ± 0.2	0.03	1.22 ± 1.1	860 ± 340	3	7	112	207	448	750	455	AUC ([1]; male, beagle, PO dosing of Compound B (10 mg/kg as printed in text), read-out: plasma AUC of Compound A after PO dosing of Compound B): 0.7 µM·h; AUC ([1]; PO administration of Compound A alone, read-out: oral AUC of Compound A following PO administration of Compound A alone): 1.74 µM·h; AUC of Compound A after IV Compound B as percent of the AUC of Compound A after IV administration of Compound A ([2]; IV): ~3%; AUC of Compound A after PO Compound B as percent of the oral AUC of Compound A after PO Compound A alone ([2]; PO): roughly 40%; AUC(0-t) ([3]; male, Sprague-Dawley, in vivo, read-out: AUC(0-24 h)): 2.55 ± 1.93 µM·h; concentration at 6 h ([3]; male, Sprague-Dawley, in vivo, 6 hours, read-out: Plasma concentration in the portal vein): 434 nM; concentration at 8 h ([3]; male, Sprague-Dawley, in vivo, 8 hours, read-out: Plasma concentration in the portal vein): 125 nM; concentration at 24 h ([3]; male, Sprague-Dawley, in vivo, 24 hours, read-out: Plasma concentration in the portal vein): 6 nM
[O-][N+]12CCC(CC1)[C@]1(CN=C(Nc3cc4ccccc4cn3)O1)C2 [Compound B, (S)-2-(Isoquinolin-3-ylamino)-4H-1′-azaspiro[oxazole-5,3′-bicyclo[2.2.2]octane]1′-oxide]	5.16 ± 0.68	3.84 ± 0.92	0.34 ± 0.04	760 ± 240	601	758	177	90	69	52	18	CLTp [2, 8]: 13.7 ± 4.0 mL/min/kg; T-HALF [2, 8]: 9.4 ± 6.5 h; AUC(0-inf) [2, 4]: 5.69 ± 0.39 µM·h; Cmax [2, 4]: 850 ± 460 nM; AUC(0-inf) [2, 5]: 3.94 ± 1.01 µM·h; Vd ([2]; male, beagle, fed, IV infusion of Compound B 1 mg/kg, plasma, read-out: Vss): 2 ± 0.2 L/kg; bioavailability ([2]; male, beagle, plasma, fasted, oral gavage of Compound B 5 mg/kg): 27 ± 15%; Plasma concentration in the portal vein ([3]; 6 hours): < LLQ; Plasma concentration in the portal vein ([3]; 8 hours): < LLQ; Plasma concentration in the portal vein ([3]; 24 hours): < LLQ
